“And” between values parts separate entries of the source, which are not always exact repeats. Equal values may be shown once. Read-outs that look alike come from different tables or passages of the source. Where a SMILES comes first, the peptide text is derived from it. [ ]: non-standard residue; d: D form. The star is where a group is joined. Oleoyl = CCCCCCCC/C=C\CCCCCCCC(=O)*; Pentanoyl(4-Me) = CC(C)CCC(=O)*; Lauroyl = CCCCCCCCCCCC(=O)*; Hexanoyl = CCCCCC(=O)*; Butyryl = CCCC(=O)*
Columns and labels:
[1] = test system: E. amylovora, P. syringae pv. syringae, X. axonopodis pv. vesicatoria and F. oxysporum; format: cell-based; settings: for Antimicrobial activity, in words: authors' overall judgement over the pathogens tested
Protocol: (§1) The following plant pathogenic bacterial strains were used: Erwinia amylovora PMV6076 (Institut National de la Recherche Agronomique, Angers, France), Pseudomonas syringae pv. syringae EPS94 (Institut de Tecnologia Agroalimentària, Universitat de Girona, Spain) and Xanthomonas axonopodis pv. vesicatoria 2133–2 (Instituto Valenciano de Investigaciones Agrarias, Valencia, Spain). All bacteria were stored in Luria Bertani (LB) broth supplemented with glycerol (20%) and maintained at -80°C. Bacteria were scrapped from LB agar after growing for 24–48 h at 25°C. The cell material was suspended in sterile water to obtain a suspension of 10^8 CFU mL^-1.
(§2) Fusarium oxysporum f. sp. lycopersici FOL 3 race 2 (ATCC 201829, American Type Culture Collection) was used as fungal pathogen. The strain was cultured on potato dextrose agar (PDA) plates (Difco) and microconidia were obtained after growth at 25°C. The concentration of conidia was determined using a hemacytometer and adjusted to 10^4 conidia mL^-1.
(§3) Lyophilized peptides were solubilized in sterile Milli-Q water to a final concentration of 1 mM and filter sterilized through a 0.22-μm pore filter. For minimum inhibitory concentration (MIC) assessment, dilutions of the compounds were made to obtain a stock concentration of […]. For antibacterial activity twenty microlitres of each dilution were mixed in a microtiter plate well with 20 μL of the corresponding suspension of the bacterial indicator, 160 μL of Trypticase Soy Broth (TSB) (BioMèrieux, France) to a total volume of 200 μL. For antifungal activity 20 μL of each stock solution were mixed in a microtiter plate well with 80 μL of the corresponding suspension of the fungal pathogen and 100 μL of double concentrated PDB to a total volume of 200 μL containing 0.003% w/v of choramphenicol.
(§4) Three replicates for each strain, compound and concentration were used. Microbial growth was determined by optical density measurement at 600 nm (Bioscreen C, Labsystem, Helsinki, Finland). For antibacterial activity microplates were incubated at 25°C with 20 sec shaking before hourly absorbance measurement for 48 h. For antifungal activity microplates were incubated at 20°C with 1 min shaking before absorbance measurement that were done every two hours during seven days. The experiment was repeated twice. The MIC was taken as the lowest compound concentration with no growth at the end of the experiment.

[2] = test system: erythrocyte suspensions of horse blood; settings: horse erythrocytes 5% vol/vol, TRIS buffer pH 7.2, 1 h at 37°C, absorbance 540 nm, relative to melittin 100 μM, ± confidence interval (α = 0.05); for Hemolysis (%) 150 µM: 150 µM peptide; for Hemolysis (%) 250 µM: 250 µM peptide;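 for all read-outs here: Read-out is hemoglobin release into the supernatant, with a buffer-only blank subtracted as the 0% baseline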
[3] = test system: Fusarium oxysporum f. sp. lycopersici FOL 3 race 2; test: MIC, antifungal growth inhibition; format: cell-based
Protocol: as §2, §3, §4

[4] = test system: Xanthomonas axonopodis pv. vesicatoria 2133–2; format: cell-based; settings: TSB, 25°C, 48 h, OD 600 nm; tested at 3.1, 6.2, 12.5, 25, 50 μM; three replicates, experiment repeated twice; MIC = lowest concentration with no growth
Protocol: as §1, §3, §4

[5] = test system: Pseudomonas syringae pv. syringae EPS94; format: cell-based; settings: 48 h
Protocol: as §1, §3, §4

[6] = test system: Erwinia amylovora PMV6076; test: MIC, in vitro growth inhibition; format: cell-based; settings: TSB, 25°C, 48 h, OD 600 nm; tested at 3.1, 6.2, 12.5, 25, 50 μM; three replicates, experiment repeated twice; MIC = lowest concentration with no growth
Protocol: as §1, §3, §4

[7] = PDB with 0.003% chloramphenicol, 20°C, seven days, OD 600 nm, tested at 3.1, 6.2, 12.5, 25, 50 μM, three replicates, repeated twice

| Compound | MIC values over the pathogens tested ([1]; span of MIC values over the four pathogens) | Hemolysis (%) 150 µM [2] | MIC Fo [3, 7] | MIC Xav [4] | MIC Pss [5] | MIC Ea [6] | Antimicrobial activity, in words [1] | Hemolysis (%) 250 µM [2] | MIC Fo [3] | MIC against three pathogens ([1]; three of the four pathogens tested) | MIC Pss ([5]; TSB, 25°C, OD 600 nm, tested at 3.1, 6.2, 12.5, 25, 50 μM, three replicates, experiment repeated twice, MIC = lowest concentration with no growth) |
| --- | --- | --- | --- | --- | --- | --- | --- | --- | --- | --- | --- |
| CCCCCC(=O)NCCCC[C@@H]1NC(=O)[C@H](CCCCN)NC(=O)[C@H](CCC(N)=O)NC(=O)[C@H](CC(C)C)NC(=O)[C@H](CCCCN)NC(=O)[C@H](CCCCN)NC(=O)[C@H](Cc2ccccc2)NC(=O)[C@H](CCCCN)NC(=O)[C@H](CCCCN)NC(=O)[C@H](CC(C)C)NC1=O [BPC588] (cyclo(FKKLQKK(Hexanoyl)LKK)) | 3.1 to 25 µM | 95 ± 4% | 6.2 to 12.5 µM | 3.1 to 6.2 µM | 6.2 to 12.5 µM | 12.5 to 25 µM |  |  |  |  |  |
| CC(C)CCC(=O)NCCCC[C@H]1NC(=O)[C@H](CCCCN)NC(=O)[C@H](CC(C)C)NC(=O)[C@H](CCCCN)NC(=O)[C@H](CCCCN)NC(=O)[C@H](CCC(N)=O)NC(=O)[C@H](CC(C)C)NC(=O)[C@H](CCCCN)NC(=O)[C@H](CCCCN)NC(=O)[C@@H](Cc2ccccc2)NC1=O [BPC634, c(KKLKk(CO-isoC5H11)fKKLQ)] (cyclo(KKLK[dK](Pentanoyl(4-Me))[dF]KKLQ)) |  | 7 ± 1% | 6.2 to 12.5 µM | 25 to 50 µM | 12.5 to 25 µM | >50 µM | low active | 17 ± 8% |  |  |  |
| CCCC(=O)NCCCC[C@@H]1NC(=O)[C@H](CCCCN)NC(=O)[C@H](CCC(N)=O)NC(=O)[C@H](CC(C)C)NC(=O)[C@H](CCCCN)NC(=O)[C@H](CCCCN)NC(=O)[C@H](Cc2ccccc2)NC(=O)[C@H](CCCCN)NC(=O)[C@H](CCCCN)NC(=O)[C@H](CC(C)C)NC1=O [BPC708] (cyclo(FKKLQKK(Butyryl)LKK)) |  | 2 ± 0.5% | 3.1 to 6.2 µM | 6.2 to 12.5 µM | 12.5 to 25 µM | 25 to 50 µM | active | 3 ± 1% |  |  |  |
| CCCCCC(=O)NCCCC[C@@H]1NC(=O)[C@H](CCCCN)NC(=O)[C@H](CC(C)C)NC(=O)[C@H](CCCCN)NC(=O)[C@H](CCCCN)NC(=O)[C@H](CCC(N)=O)NC(=O)[C@H](CC(C)C)NC(=O)[C@H](CCCCN)NC(=O)[C@H](CCCCN)NC(=O)[C@H](Cc2c[nH]cn2)NC1=O [BPC636, c(KKLKK(CO-nC5H11)HKKLQ)] (cyclo(HKKLQKKLKK(Hexanoyl))) |  | 5 ± 2% | 6.2 to 12.5 µM | 12.5 to 25 µM | 6.2 to 12.5 µM | 25 to 50 µM |  | 16 ± 5% |  |  |  |
| CCCC(=O)NCCCC[C@@H]1NC(=O)[C@H](CCC(N)=O)NC(=O)[C@H](CC(C)C)NC(=O)[C@H](CCCCN)NC(=O)[C@H](CCCCN)NC(=O)[C@H](Cc2c[nH]cn2)NC(=O)[C@H](CCCCN)NC(=O)[C@H](CCCCN)NC(=O)[C@H](CC(C)C)NC(=O)[C@H](CCCCN)NC1=O [BPC722] (cyclo(HKKLQK(Butyryl)KLKK)) |  | 3 ± 0.2% | 3.1 to 6.2 µM | 25 to 50 µM | >50 µM | >50 µM |  | 3 ± 0.1% |  |  |  |
| CCCC(=O)NCCCC[C@@H]1NC(=O)[C@H](CCCCN)NC(=O)[C@H](CC(C)C)NC(=O)[C@H](CCCCN)NC(=O)[C@H](CCCCN)NC(=O)[C@H](CCC(N)=O)NC(=O)[C@H](CC(C)C)NC(=O)[C@H](CCCCN)NC(=O)[C@H](CCCCN)NC(=O)[C@@H](Cc2ccccc2)NC1=O [BPC712, c(KKLKK(CO-C3H7)fKKLQ)] (cyclo(KKLKK(Butyryl)[dF]KKLQ)) |  | 30 ± 4% | 3.1 to 6.2 µM | 3.1 to 12.5 µM and 3.1 to 6.2 µM | 12.5 to 25 µM | 25 to 50 µM |  | 38 ± 7% | 3.1 to 6.2 µM |  |  |
| CC(C)CCC(=O)NCCCC[C@H]1NC(=O)[C@H](CCCCN)NC(=O)[C@H](CC(C)C)NC(=O)[C@H](CCCCN)NC(=O)[C@H](CCCCN)NC(=O)[C@H](CCC(N)=O)NC(=O)[C@H](CC(C)C)NC(=O)[C@H](CCCCN)NC(=O)[C@H](CCCCN)NC(=O)[C@H](Cc2ccccc2)NC1=O [BPC630, c(KKLKk(CO-isoC5H11)FKKLQ)] (cyclo(FKKLQKKLK[dK](Pentanoyl(4-Me)))) |  | 22 ± 2% | 6.2 to 12.5 µM | 6.2 to 12.5 µM | 6.2 to 12.5 µM | 25 to 50 µM |  | 28 ± 3% |  |  |  |
| CCCCCCCCCCCC(=O)NCCCC[C@@H]1NC(=O)[C@H](CCCCN)NC(=O)[C@H](CC(C)C)NC(=O)[C@H](CCCCN)NC(=O)[C@H](CCCCN)NC(=O)[C@H](CCC(N)=O)NC(=O)[C@H](CC(C)C)NC(=O)[C@H](CCCCN)NC(=O)[C@H](CCCCN)NC(=O)[C@H](Cc2ccccc2)NC1=O [BPC530, c(KKLKK(CO-C11H23)FKKLQ)] (cyclo(FKKLQKKLKK(Lauroyl))) |  | 89 ± 7% | 6.2 to 12.5 µM | 6.2 to 12.5 µM | 12.5 to 25 µM | 12.5 to 25 µM |  | 91 ± 9% |  |  |  |
| CCCCCC(=O)NCCCC[C@@H]1NC(=O)[C@H](CCCCN)NC(=O)[C@H](CCC(N)=O)NC(=O)[C@H](CC(C)C)NC(=O)[C@H](CCCCN)NC(=O)[C@H](CCCCN)NC(=O)[C@@H](Cc2ccccc2)NC(=O)[C@H](CCCCN)NC(=O)[C@H](CCCCN)NC(=O)[C@H](CC(C)C)NC1=O [BPC680, c(KK(CO-nC5H11)LKKfKKLQ)] (cyclo(KK(Hexanoyl)LKK[dF]KKLQ)) |  | 77 ± 2% | 3.1 to 6.2 µM | 12.5 to 25 µM | 25 to 50 µM | 25 to 50 µM |  | 81 ± 4% |  |  |  |
| c(KKLKK(CO-C8H17)FKKLQ) [BPC594] |  |  | 6.2 to 12.5 µM | 3.1 to 6.2 µM |  | 25 to 50 µM |  |  |  | < 12.5 µM | 6.2 to 12.5 µM |
| CCCCCC(=O)NCCCC[C@@H]1NC(=O)[C@H](CC(C)C)NC(=O)[C@H](CCCCN)NC(=O)[C@H](CCCCN)NC(=O)[C@H](CCC(N)=O)NC(=O)[C@H](CC(C)C)NC(=O)[C@H](CCCCN)NC(=O)[C@H](CCCCN)NC(=O)[C@H](Cc2ccccc2)NC(=O)[C@H](CCCCN)NC1=O [BPC586, c(KKLK(CO-nC5H11)KFKKLQ)] (cyclo(FKKLQKKLK(Hexanoyl)K)) |  | 92 ± 9% | 12.5 to 25 µM | 6.2 to 12.5 µM | 6.2 to 12.5 µM | 12.5 to 25 µM |  | 95 ± 20% |  |  |  |
| CCCC(=O)NCCCC[C@H]1NC(=O)[C@H](CCCCN)NC(=O)[C@H](CCC(N)=O)NC(=O)[C@H](CC(C)C)NC(=O)[C@H](CCCCN)NC(=O)[C@H](CCCCN)NC(=O)[C@H](Cc2ccccc2)NC(=O)[C@H](CCCCN)NC(=O)[C@H](CCCCN)NC(=O)[C@H](CC(C)C)NC1=O [BPC704] (cyclo(FKKLQK[dK](Butyryl)LKK)) |  | 9 ± 1% | 12.5 to 25 µM | 6.2 to 12.5 µM | 6.2 to 12.5 µM | 25 to 50 µM |  | 16 ± 2% |  |  |  |
| CCCCCCCC/C=C\CCCCCCCC(=O)NCCCC[C@@H]1NC(=O)[C@H](CCCCN)NC(=O)[C@H](CC(C)C)NC(=O)[C@H](CCCCN)NC(=O)[C@H](CCCCN)NC(=O)[C@H](CCC(N)=O)NC(=O)[C@H](CC(C)C)NC(=O)[C@H](CCCCN)NC(=O)[C@H](CCCCN)NC(=O)[C@H](Cc2ccccc2)NC1=O [BPC622, c(KKLKK(CO-C17H33)FKKLQ)] (cyclo(FKKLQKKLKK(Oleoyl))) |  | 91 ± 2% | >50 µM | 3.1 to 6.2 µM | 25 to 50 µM | >50 µM |  | 97 ± 3% |  |  |  |

Reference: publication PMC4805166, “Synthetic Cyclolipopeptides Selective against Microbial, Plant and Animal Cell Targets by Incorporation of D-Amino Acids or Histidine” (PLoS ONE, 2016)
